Structures are written as SMILES.

This assay deals with T1, recombinant human Syk (GST-hSyk fusion protein) (Homo sapiens, UniProt P43405).
T1 construct: purchased Carna Biosciences 08-176
The assay is described as follows: Homogeneous Time-Resolved Fluorescence (HTRF) assay for the recombinant human Syk enzyme. It counts as biochemical. The settings on record: IC50 class; 10-dose titration, 25 μM ATP; read-out: rhSYK Activity. Put shortly:
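IC50 came from a four-parameter fit over ten doses, 10 μM to 0.508 nM, with HTRF read-out (Eu-anti-pTyr antibody, SA-APC, EDTA stop, 30 min). The enzyme, 5 pM GST-hSyk, met compound for 10 min, then phosphorylated 250 nM biotin-peptide with 25 μM ATP and 5 mM Mg for 45 min at room temperature, pH 7.5.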
For `Cc1cc(Nc2nccc(OC(C)C)n2)cc(-c2cnn(C[C@](C)(O)CO)c2)c1` [Example 2.96, (2S)-2-methyl-3-[4-(3-methyl-5-{[4-(1-methylethoxy)pyrimidin-2-yl]amino}phenyl)-1H-pyrazol-1-yl]propane-1,2-diol], the IC50 was not above 0.1 µM.

With `Cc1cc(Nc2ncc(Cl)c(C)n2)cc(-c2cnn(C[C@](C)(O)CO)c2)c1` [Example 2.97, (2S)-3-(4-{3-[(5-chloro-4-methylpyrimidin-2-yl)amino]-5-methylphenyl}-1H-pyrazol-1-yl)-2-methylpropane-1,2-diol], the IC50 is not above 0.1 µM.

On to `COc1nc(Nc2cc(C)cc(-c3cnn(C[C@](C)(O)CO)c3)c2)ncc1Cl` [Example 2.98, (2S)-3-(4-{3-[(5-chloro-4-methoxypyrimidin-2-yl)amino]-5-methylphenyl}-1H-pyrazol-1-yl)-2-methylpropane-1,2-diol], for which the IC50 is not above 0.1 µM.

Take `Cc1cc(Nc2nccc(C(F)(F)F)n2)cc(-c2cnn(C[C@H](O)CC#N)c2)c1` [Example 3.2, (3R)-3-hydroxy-4-[4-(3-methyl-5-{[4-(trifluoromethyl)-pyrimidin-2-yl]amino}phenyl)-1H-pyrazol-1-yl]-butanenitrile]: the IC50 is not above 0.1 µM.

For the compound `Cc1cc(Nc2nccc(C(F)(F)F)n2)cc(-c2cnn(CCC(N)=O)c2)c1` [Example 3.3], the IC50 was not above 0.1 µM.

Consider `Cc1cc(Nc2nccc(C(F)(F)F)n2)cc(-c2cnn(C[C@@H](C)CO)c2)c1` [Example 3.4, (2r)-2-methyl-3-[4-(3-methyl-5-{[4-(trifluoromethyl)-pyrimidin-2-yl]-amino}phenyl)-1H-pyrazol-1-yl]-propan-1-ol], for which the IC50 is not above 0.1 µM.

Regarding `Cc1cc(Nc2nccc(C(F)(F)F)n2)cc(-c2cnn(C[C@H](C)CO)c2)c1` [Example 3.5, (2s)-2-methyl-3-[4-(3-methyl-5-{[4-(trifluoromethyl)-pyrimidin-2-yl]amino}-phenyl)-1H-pyrazol-1-yl]-propan-1-ol], the IC50 is not above 0.1 µM.

For the compound `Cc1cc(Nc2nccc(C(F)(F)F)n2)cc(-c2cnn(CCCN3CCNC3=O)c2)c1` [Example 3.6, 1-{3-[4-(3-methyl-5-{[4-(trifluoro-methyl)pyrimidin-2-yl]amino}-phenyl)-1H-pyrazol-1-yl]-propyl}imidazolidin-2-one], the IC50 was not above 0.1 µM.

On to `CC(=O)N1CCN(C(=O)Cn2cc(-c3cc(C)cc(Nc4nccc(C(F)(F)F)n4)c3)cn2)CC1` [Example 3.7, N-(3-{1-[2-(4-acetylpiperazin-1-yl)-2-oxoethyl]-1H-pyrazol-4-yl}-5-methylphenyl)-4-(trifluoromethyl)-pyrimidin-2-amine], for which the IC50 was not above 0.1 µM.

In the case of `Cc1cc(Nc2nccc(C(F)(F)F)n2)cc(-c2cnn(CC(=O)NC(C)(C)C)c2)c1` [Example 3.8, N-tert-butyl-2-[4-(3-methyl-5-{[4-(trifluoromethyl)pyrimidin-2-yl]amino}-phenyl)-1H-pyrazol-1-yl]acetamide], the IC50 is not above 0.1 µM.

For `Cc1cc(Nc2nccc(C(F)(F)F)n2)cc(-c2cnn(CC3COCCO3)c2)c1` (stereo not drawn) [Example 3.9, N-{3-[1-(1,4-dioxan-2-ylmethyl)-1H-pyrazol-4-yl]-5-methyl-phenyl}-4-(trifluoro-methyl)pyrimidin-2-amine], the IC50 was not above 0.1 µM.

As to `Cc1cc(Nc2nccc(C(F)(F)F)n2)cc(-c2cnn(Cc3noc(C)n3)c2)c1` [Example 3.10, N-(3-methyl-5-{1-[(5-methyl-1,2,4-oxadiazol-3-yl)methyl]-1H-pyrazol-4-yl}phenyl)-4-(trifluoromethyl)-pyrimidin-2-amine], the IC50 was not above 0.1 µM.

`Cc1cc(Nc2nccc(C(F)(F)F)n2)cc(-c2cnn(CC(=O)N3COCC3(C)C)c2)c1` [Example 3.11, N-(3-{1-[2-(4,4-dimethyl-1,3-oxazolidin-3-yl)-2-oxoethyl]-1H-pyrazol-4-yl}-5-methylphenyl)-4-(trifluoromethyl)pyrimidin-2-amine]: the IC50 was not above 0.1 µM.

In the case of `COCC(C)(C)NC(=O)Cn1cc(-c2cc(C)cc(Nc3nccc(C(F)(F)F)n3)c2)cn1` [Example 3.12, N-(2-methoxy-1,1-dimethylethyl)-2-[4-(3-methyl-5-{[4-(trifluoromethyl)pyrimidin-2-yl]amino}phenyl)-1H-pyrazol-1-yl]acetamide], the IC50 lay in the range of 0.1 to 1 µM.

With `Cc1cc(Nc2nccc(C(F)(F)F)n2)cc(-c2cnn(CC(=O)N3CCOCC3(C)C)c2)c1` [Example 3.13, N-(3-{1-[2-(3,3-dimethylmorpholin-4-yl)-2-oxoethyl]-1H-pyrazol-4-yl}-5-methylphenyl)-4-(trifluoromethyl)pyrimidin-2-amine], the IC50 fell in the range of 0.1 to 1 µM.

Turning to `Cc1cc(Nc2nccc(C(F)(F)F)n2)cc(-c2cnn(CC(=O)N3[C@H](C)COC[C@@H]3C)c2)c1` [Example 3.14, N-[3-(1-{2-[(3r,5s)-3,5-dimethyl-morpholin-4-yl]-2-oxoethyl}-1H-pyrazol-4-yl)-5-methylphenyl]-4-(trifluoromethyl)-pyrimidin-2-amine], the IC50 lay in the range of 0.1 to 1 µM.

Turning to `Cc1cc(Nc2nccc(C(F)(F)F)n2)cc(-c2cnn(CC(=O)N3[C@H](C)COC[C@H]3C)c2)c1` [Example 3.15, N-[3-(1-{2-[(3r,5r)-3,5-dimethylmorpholin-4-yl]-2-oxoethyl}-1H-pyrazol-4-yl)-5-methylphenyl]-4-(trifluoromethyl)-pyrimidin-2-amine], the IC50 is not above 0.1 µM.

Regarding `Cc1cc(Nc2nccc(C(F)(F)F)n2)cc(-c2cnn(CCNC(N)=O)c2)c1` [Example 3.16, 1-{2-[4-(3-methyl-5-{[4-(trifluoromethyl)-pyrimidin-2-yl]-amino}phenyl)-1H-pyrazol-1-yl]ethyl}urea], the IC50 is not above 0.1 µM.

With `Cc1cc(Nc2nccc(C(F)(F)F)n2)cc(-c2cnn(C3CCOC3=O)c2)c1` (stereo not drawn) [Example 3.17, 3-[4-(3-methyl-5-{[4-(trifluoromethyl)pyrimidin-2-yl]amino}-phenyl)-1H-pyrazol-1-yl]dihydrofuran-2(3h)-one], the IC50 is not above 0.1 µM.

For the compound `Cc1cc(Nc2nccc(C(F)(F)F)n2)cc(-c2cnn(CC3CCO3)c2)c1` (stereo not drawn) [Example 3.18, N-{3-methyl-5-[1-(oxetan-2-ylmethyl)-1H-pyrazol-4-yl]-phenyl}-4-(trifluoro-methyl)-pyrimidin-2-amine], the IC50 was not above 0.1 µM.

Turning to `Cc1cc(Nc2nccc(C(F)(F)F)n2)cc(-c2cnn(CCOCCO)c2)c1` [Example 3.19], the IC50 is not above 0.1 µM.

In the case of `Cc1cc(Nc2nccc(C(F)(F)F)n2)cc(-c2cnn(CCCN)c2)c1` [Example 3.20, N-{3-[1-(3-aminopropyl)-1H-pyrazol-4-yl]-5-methylphenyl}-4-(trifluoromethyl)pyrimidin-2-amine], the IC50 was not above 0.1 µM.

For `Cc1cc(Nc2nccc(C(F)(F)F)n2)cc(-c2cnn(CC3CC3)c2)c1` [Example 3.21, N-{3-[1-(cyclopropylmethyl)-1H-pyrazol-4-yl]-5-methylphenyl}-4-(trifluoromethyl)pyrimidin-2-amine], the IC50 is not above 0.1 µM.

`CC(=O)Cn1cc(-c2cc(C)cc(Nc3nccc(C(F)(F)F)n3)c2)cn1` [Example 3.22, 1-[4-(3-methyl-5-{[4-(trifluoromethyl)pyrimidin-2-yl]amino}phenyl)-1H-pyrazol-1-yl]propan-2-one]: the IC50 was not above 0.1 µM.

As for `CCOC(Cn1cc(-c2cc(C)cc(Nc3nccc(C(F)(F)F)n3)c2)cn1)OCC` [Example 3.23, N-{3-[1-(2,2-diethoxyethyl)-1H-pyrazol-4-yl]-5-methylphenyl}-4-(trifluoromethyl)pyrimidin-2-amine], the IC50 was 0.1 to 1 µM.

As for `Cc1cc(Nc2nccc(C(F)(F)F)n2)cc(-c2cnn(Cc3nnc(C)o3)c2)c1` [Example 3.24, N-(3-methyl-5-{1-[(5-methyl-1,3,4-oxadiazol-2-yl)methyl]-1H-pyrazol-4-yl}phenyl)-4-(trifluoromethyl)pyrimidin-2-amine], the IC50 is not above 0.1 µM.

Take `Cc1cc(Nc2nccc(C(F)(F)F)n2)cc(-c2cnn(Cc3cc(C)no3)c2)c1` [Example 3.25, N-(3-methyl-5-{1-[(3-methylisoxazol-5-yl)methyl]-1H-pyrazol-4-yl}phenyl)-4-(trifluoromethyl)-pyrimidin-2-amine]: the IC50 was not above 0.1 µM.

As for `Cc1cc(Nc2nccc(C(F)(F)F)n2)cc(-c2cnn(CC(=O)N3CCC3)c2)c1` [Example 3.26, N-{3-[1-(2-azetidin-1-yl-2-oxoethyl)-1H-pyrazol-4-yl]-5-methylphenyl}-4-(trifluoromethyl)pyrimidin-2-amine], the IC50 is not above 0.1 µM.

Regarding `Cc1cc(Nc2nccc(C(F)(F)F)n2)cc(-c2cnn(CC(=O)N3CCCC3)c2)c1` [Example 3.27, N-{3-methyl-5-[1-(2-oxo-2-pyrrolidin-1-ylethyl)-1H-pyrazol-4-yl]phenyl}-4-(trifluoromethyl)pyrimidin-2-amine], the IC50 is not above 0.1 µM.

Regarding `CCC(C(=O)OC)n1cc(-c2cc(C)cc(Nc3nccc(C(F)(F)F)n3)c2)cn1` (stereo not drawn) [Example 3.28, methyl 2-[4-(3-methyl-5-{[4-(trifluoromethyl)pyrimidin-2-yl]amino}-phenyl)-1H-pyrazol-1-yl]butanoate], the IC50 is not above 0.1 µM.

As to `COC(=O)C(C)n1cc(-c2cc(C)cc(Nc3nccc(C(F)(F)F)n3)c2)cn1` (stereo not drawn) [Example 3.29, methyl 2-[4-[3-methyl-5-{[4-(trifluoromethyl)-pyrimidin-2-yl]amino}-phenyl)-1H-pyrazol-1-yl]propanoate], the IC50 was not above 0.1 µM.

Turning to `CCOC(=O)C(C)n1cc(-c2cc(C)cc(Nc3nccc(C(F)(F)F)n3)c2)cn1` (stereo not drawn) [Example 3.30, ethyl 2-[4-(3-methyl-5-{[4-(trifluoromethyl)-pyrimidin-2-yl]amino}phenyl)-1H-pyrazol-1-yl]propanoate], the IC50 was not above 0.1 µM.

Turning to `Cc1cc(Nc2nccc(C(F)(F)F)n2)cc(-c2cnn(CCCO)c2)c1` [Example 3.31, 3-[4-(3-methyl-5-{[4-(trifluoromethyl)pyrimidin-2-yl]amino}-phenyl)-1H-pyrazol-1-yl]propan-1-ol], the IC50 was not above 0.1 µM.

These data come from patent US9242984B2, “Pyrazolyl derivatives as Syk inhibitors” (Merck Sharp & Dohme Corp., priority 2012, dated 2016).
